Measurements published in patent US20030049249A1 (priority 2001, published 2003).

Experiments:
[1] = tested on: chronically scrapie-infected N2a/Bos2 cells; type: cell-based, mouse
[2] = tested on: N2a/Bos2 cells exposed to 0.1% scrapie-infected brain homogenate (RML prions); type: cell-based, mouse

phosphatidylinositol-specific phospholipase C [PIPLC]
effect on PrPSc in chronically infected cells [1]: causes rapid loss of PrPSc | effect on appearance of PrPSc ([2]; PIPLC 0.25, 0.5, 1 and 2 units/ml before and/or during exposure of a susceptible cell to prions): prevents appearance of PrPSc | concentration that sufficed to prevent appearance of PrPSc ([2]; added 2 h before and during 3-day exposure to 0.1% scrapie-infected brain homogenate, cell blot after 14 days in absence of PIPLC): 0.25 units/ml
